One compound from paper PMC5841205, “Pharmacological targeting of apelin impairs glioblastoma growth” (Brain, 2017) can be followed below.

Positions of bridges follow the written chain, without caps; N, C: chain ends. Residues, ends and D or L forms follow the SMILES beside them.

This series concerns C57Bl/6J female mice. Kind of series: Complete blood count. The series is classed as in vivo, mouse. On the procedure:
To test potential toxic effects of MM54 and MM193 in vivo, mice were administered 2 mg/kg of MM54, MM193 or vehicle bi-weekly for 4 weeks. At sacrifice, blood was taken for analysis and the heart, kidney, aorta and liver removed, weighed and fixed for histological analysis. For the glycaemic study, animals were starved for 6 h prior to sacrifice.
Total blood count DMSO MM54
Red blood cells (M/µl) 6,8 ± 0,9 7,5 ± 0,3
Mean corpuscular volume (fl) 46,4 ± 0,2 47,2 ± 0,4
Mean corpuscular haemoglobin (pg) 13,0 ± 0,0 13,2 ± 0,2
Mean corpuscular haemoglobin concentration (g/dl) 27,9 ± 0,1 27,9 ± 0,3 Red cell distribution width (%) 15,7 ± 0,2 16,1 ± 0,1
Table S5. Blood analysis after MM54 treatment
In order to test potential toxic effects of MM54 in vivo, C57Bl/6J female mice were administered 2 mg/kg of MM54 or DMSO vehicle, bi-weekly for 4 weeks. At sacrifice, blood was taken for analysis and the heart, kidney, aorta and liver removed, weighed and fixed for histological analysis (as shown in Figure S4). n=4 mice/group, 63 mean±SEM.

The mark [1] stands for this setting: MM54 2 mg/kg bi-weekly, 4 weeks, female C57Bl/6J mice, n=4, mean±SEM.

Take `CC(C)C[C@@H]1NC(=O)[C@H](CCCNC(=N)N)NC(=O)[C@@H]2CCCN2C(=O)[C@H](CCCNC(=N)N)NC(=O)[C@@H](NC(=O)[C@H](Cc2c[nH]cn2)NC(=O)[C@H](CCCCN)NC(=O)[C@@H]2CSSC[C@H](N)C(=O)N[C@@H](CCCNC(=N)N)C(=O)N3CCC[C@H]3C(=O)N[C@@H](CCCNC(=N)N)C(=O)N[C@@H](CC(C)C)C(=O)N2)CSSC[C@@H](C(=O)O)NC1=O` [MM54, cyclo(1–6)CRPRLC-KH-cyclo(9–14)CRPRLC] (H-CRPRLCKHCRPRLC-OH; disulfide 1-6, 9-14): the “complete blood count vs vehicle” value (MM54 2 mg/kg bi-weekly for 4 weeks, healthy animals) is given as “no significant differences”. Besides, under setting [1], the Basophils is listed as 0,19 ± 0,12 K/µl, the Eosinophils was 0,52 ± 0,28 K/µl, the Haemoglobin is listed as 9,9 ± 0,6 g/dl and the Hematocrit is given as 35,4 ± 1,9%. Further, under setting [1], the Lymphocytes was 7,50 ± 0,51 K/µl, the Mean corpuscular haemoglobin is on record as 13,2 ± 0,2 pg, the “Mean corpuscular haemoglobin concentration” value is reported as 27,9 ± 0,3 g/dl and the Mean corpuscular volume is 47,2 ± 0,4 fl. Also, under setting [1], the Mean platelet volume is 4,45 ± 0,16 fl, the Monocytes is listed as 0,42 ± 0,11 K/µl, the Neutrophils is 2,56 ± 0,66 K/µl and the Platelet came to 301 ± 27 K/µl. Also, under setting [1], the Red blood cells is given as 7,5 ± 0,3 M/µl and the “Red cell distribution width” value was 16,1 ± 0,1%.
